Source: patent publication US5124313A, “Methods of improved skin care and the treatment of dermatological conditions” (priority 1989, dated 1992)
Where two headings read alike, the source gives them in different places. Each block holds one compound with its values, some of them ahead of it.

Legend:
[1] = cited from earlier work; for allergic responses / skin irritation / sensitization: human, in vivo
[2] = In vitro water/solvent partitioning (dispersion, centrifugation, HPLC of supernatant); type: physicochemical
Method: The method s for determining in vitro water/solvent partitioning was as follows:
Individual dispersions of the above were prepared in the following solvents:
(1) Distilled water at 23° C.
(2) Distilled water at 70° C.
The dispersions were made under nitrogen and protected from light, using high shear agitation to yield particles of less than 0.5 u in diameter. The concentrations in each case were calculated to yield 4,000 i.u. per ml. The dispersions were centrifuged until clear supernatant liquids were obtained. Aliquouts of 50 uL of the clear supernatants were injected into the HPLC columns and the resulting peaks were evaluated, using a methanol solution of retinyl palmitate as the standard.

[3] = human, in vivo
Method: Ten subjects, 4 females and 6 males, ranging in age from 18 to 27 years participated with informed consent.
The products were applied to alternate inner wrist surfaces, in areas of 2.5×1.0 cm, rubbed into the skin for aproximately 5-10 seconds, using a gloved finger as an applicator and applying equal pressure in all applications. […] Mixing, applications and assays were performed in subdued light in order to decrease photodecomposition. The application sites were loosely covered with protective aluminum foil. After 30 minutes of exposure, the surface products were removed by rinsing with alcohol followed by air-drying. A strip of 3M Tape was then applied to the application site in a slightly larger rectangle than the site and removed. This stripping process was repeated for a total of 15 times and was designed to removed the entire stratum corneum. The combined strips were eluted with methanol and the eluates were assayed for RP by HPLC, using a Lichrosorb Si 60/5 micron column, after separation and saponification according to a modified USP XXI procedure.

[4] = present practices of use and concentration; cited from earlier work
[5] = topical; cited from earlier work
fetuses [6] = conditions: rat; topical administration to the mother; cited from earlier work
fetuses [7] = conditions: rabbit; topical administration to the mother; cited from earlier work
[8] = n-Hexane at 250° C. (so in the source), dispersion calculated to 4,000 i.u. per ml
[9] = n-Hexane, dispersion calculated to 4,000 i.u. per ml

Structure (SMILES): CC1=C(/C=C/C(C)=C/C=C/C(C)=C\C(=O)O)C(C)(C)CCC1 [Accutane®, 13-cis-Retinoic acid]
birth defects ([1]; children of women treated during pregnancy): extensive birth defects in children of women treated with the drug during pregnancy
allergic responses / skin irritation / sensitization [1]: Allergic responses have also been reported

solubility in n-hexane (in words) [2]: good solubility
solubility in water (in words) [2]: no solubility in water
Absorption, both HPLC peaks (or absence of peak) ([2]; Water at 23° C., dispersion calculated to 4,000 i.u. per ml): No peak
Absorption, both HPLC peaks (or absence of peak) ([2]; Water at 70° C., dispersion calculated to 4,000 i.u. per ml): No Peak
Absorption, both HPLC peaks (or absence of peak) [2, 8]: 0.10
HPLC Peak #2 [2, 8]: 0.070
Absorption equivalent [2, 9]: ~4,000 i.u.
HPLC Peak #1 [2, 9]: 0.031
% Retinyl Palmitate Absorbed, average +/- Std. Deviation [3]: 0.84 +/- 0.21%
Structure (SMILES): CCCCCCCCCCCCCCCC(=O)OC/C=C(C)/C=C/C=C(C)/C=C/C1=C(C)CCCC1(C)C [RP, retinyl palmitate]
partitioning / migration into water and hexane (in words) ([2]; water and hexane): no migration into water with some fractionation into hexane
safety as cosmetic ingredient [4]: safe as cosmetic ingredients

Structure (SMILES): CC1=C(/C=C/C(C)=C/C=C/C(C)=C/C(=O)O)C(C)(C)CCC1 [Tretinoin, All-trans-retinoic acid]
treatment of photoaged skin [5]: effective for the treatment of photoaged skin
allergic responses / skin irritation / sensitization [1]: severe skin irritation, sensitization and allergic responses
fetal abnormalities (fetuses [6]): abnormalities in rat and rabbit fetuses
fetal abnormalities (fetuses [7]): abnormalities in rat and rabbit fetuses

Structure (SMILES): CC(C=CC1=C(C)CCCC1(C)C)=CC=CC(C)=CCO [retinol, 3,7-dimethyl-9-(2,6,6-trimethyl-1-cyclohexen-1-yl)-2,4,6,8-nonatetraen-1-ol]
safety as cosmetic ingredient [4]: safe as cosmetic ingredients
